From PubChem BioAssay AID651697 (Sanford-Burnham Center for Chemical Genomics, 2012)

molecular target: Sentrin-specific protease 1 (Homo sapiens) (UniProt Q9P0U3); assay: potency of human SENP1 inhibitors, dose response, biochemical, kinetic FRET (AID 651697); details: recombinant SENP1 catalytic domain, kinetic FRET protease assay
Sequence (Q9P0U3 419-644 limits assumed): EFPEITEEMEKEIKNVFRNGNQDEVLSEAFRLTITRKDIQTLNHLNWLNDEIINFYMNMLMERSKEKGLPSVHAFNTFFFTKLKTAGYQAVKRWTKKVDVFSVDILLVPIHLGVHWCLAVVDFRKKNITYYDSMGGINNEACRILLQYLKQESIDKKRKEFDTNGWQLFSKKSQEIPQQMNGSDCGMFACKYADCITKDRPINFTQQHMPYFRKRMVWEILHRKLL

Row | IC50 | Structure (SMILES)
1 | 14.2 µM | COCCNC(=O)c1cccc2c1C(=O)c1ccc(N3CCOCC3)cc1S2(=O)=O
2 | 18.5 µM | Cc1nc2ccc(NS(=O)(=O)c3ccc(F)cc3F)cc2s1
3 | 7.71 µM | O=C(c1ccccc1)[C@@H]1[C@@H]2C(=O)N(c3ccc(F)cc3)C(=O)[C@@H]2C2CCCN21 (some centres undefined)
4 | 8.37 µM | Oc1ccc(Cl)cc1C1=Nc2ccccc2N=C(c2ccco2)C1
